{"source": "BindingDB's records for doi:10.7270/Q23F4N3R", "about": "(Burnham Center For Chemical Genomics, 2011)"}
{"assay": "hexokinase 1 inhibition, dose response, selectivity assay for HKDC1 inhibitor project, biochemical (AID 504763)", "settings": "not given", "units": {"IC50": "µM"}}
{"molecule": "O=c1c2ccccc2nc2n1CCC2", "note": "[2,3-dihydropyrrolo[2,1-b]quinazolin-9(1H)-one]", "IC50": "> 80"}
{"molecule": "CC(=O)Nc1ccc(NC2=CC(=NS(=O)(=O)c3cccs3)c3ccccc3C2=O)cc1", "note": "[SMR000313158]", "IC50": 4.2}
{"molecule": "O=[N+]([O-])c1ccc(Sc2nc3ccccc3o2)c([N+](=O)[O-])c1", "note": "[MLS000532050]", "IC50": "> 80"}
{"molecule": "COC1=C(OC)C(=O)C(Sc2ccc3ccccc3c2)=CC1=O", "note": "[2,3-dimethoxy-5-naphthalen-2-ylsulfanylcyclohexa-2,5-diene-1,4-dione]", "IC50": 7.15}
{"molecule": "Cc1ccc2cc(CCNC(=O)c3ccc(S(=O)(=O)N4CCCCC4)cc3)c(O)nc2c1", "IC50": 6.04}
{"molecule": "O=c1c2ccccc2nc(/C=C/c2cccnc2)n1CCc1ccccc1", "IC50": "> 80"}
{"molecule": "CC[C@H](C)C=C(C)/C=C/C1=CC2=C(Cl)C(=O)[C@@](C)(OC(C)=O)C(=O)C2=CO1", "note": "[SMR000470870]", "IC50": "> 80"}
{"molecule": "COC1=CC(=O)c2c(ccc3ncnc(N)c23)C1=O", "note": "[MLS002701780]", "IC50": 1.83}
{"molecule": "NC(=O)C1CCN(C2=C(Cl)C(=O)c3ccccc3C2=O)CC1", "note": "[SMR000180199]", "IC50": "> 80"}
{"molecule": "Cc1ccc(S(=O)(=O)N=C2C=C(Sc3nnc[nH]3)C(=O)c3ccccc32)cc1", "note": "[4-Methyl-N-[4-oxo-3-(2H-[1,2,4]triazol-3-ylsulfanyl)-4H-naphthalen-1-ylidene]-benzenesulfonamide]", "IC50": 3.29}
{"molecule": "CCc1ccc(S(=O)(=O)N=C2C=C(Nc3cccc(C(=O)O)c3)C(=O)c3ccccc32)cc1", "note": "[SMR000620248]", "IC50": 5.83}
{"molecule": "CC(=O)NC1C(=O)N(CCN2CCOCC2)c2ccc(F)cc21", "note": "(centres undefined) [MLS001215963]", "IC50": "> 80"}
{"molecule": "O=C(/C=C/c1cccs1)Nc1scc(-c2ccccc2)c1C(=O)O", "note": "[SMR000364116]", "IC50": "> 80"}
{"molecule": "C=c1c(NC(C)=O)c(O)c2nc3n(c2c1O)CCC=3OC(=O)COC", "note": "[SMR001565176]", "IC50": 2.15}
{"molecule": "O=C1C=C(N2CCCCC2)c2ccccc2C1=O", "note": "[4-piperidin-1-ylnaphthalene-1,2-dione]", "IC50": 2.39}
{"molecule": "CCCc1nc2oc3c(OC)ncnc3c2c2c1COC(C)(C)C2", "note": "[MLS000559436]", "IC50": 18.5}
{"molecule": "O=C(CSc1nnc(CCCN2C(=O)c3cccc4cccc(c34)C2=O)n1-c1ccccc1)N1CCN(CCO)CC1", "note": "[2-[3-[5-[[2-[4-(2-hydroxyethyl)-1-piperazinyl]-2-oxoethyl]thio]-4-phenyl-1,2,4-triazol-3-yl]propyl]benzo[de]isoquinoline-1,3-dione]", "IC50": 7.31}
{"molecule": "Nc1c(Br)cc2c3c(cccc13)-c1ccccc1-2", "note": "[MLS002694423]", "IC50": 9.59}
{"molecule": "COC(=O)C1CN(C#N)N(c2ccc(Cl)cc2)C12c1ccccc1-c1ccccc12", "note": "(centres undefined) [2'-(4-chlorophenyl)-1'-cyano-4'-spiro[fluorene-9,3'-pyrazolidine]carboxylic acid methyl ester]", "IC50": "> 80"}
{"molecule": "COCc1cc(C2C(C(=O)c3ccco3)C(=O)C(=O)N2CCOCCO)ccc1O", "note": "(centres undefined) [3-(furan-2-carbonyl)-4-hydroxy-1-[2-(2-hydroxyethoxy)ethyl]-2-[4-hydroxy-3-(methoxymethyl)phenyl]-2H-pyrrol-5-one]", "IC50": "> 80"}
{"molecule": "CCCc1nc2oc3c(NCCOCCO)ncnc3c2c2c1COC(C)(C)C2", "note": "[SMR000048002]", "IC50": 11.1}
{"molecule": "CCc1ccc(S(=O)(=O)N=C2C=C(Nc3ccc(C(=O)O)cc3)C(=O)c3ccccc32)cc1", "IC50": 6.89}
{"molecule": "Oc1nc2ccccc2n2c(-c3ccccc3)nnc12", "note": "[SMR000162081]", "IC50": 19}
{"molecule": "COC1=CC(=O)C=C(OC)C1=O", "note": "[MLS002207260]", "IC50": 3.54}
{"molecule": "O=C(O)c1ccc(NC2=CC(=NS(=O)(=O)c3ccccc3)c3ccccc3C2=O)cc1", "note": "[SMR000313157]", "IC50": 1.63}
{"molecule": "COC1=C(Br)C(=O)c2ncccc2C1=O", "note": "[7-bromo-6-methoxyquinoline-5,8-dione]", "IC50": 4.89}
{"molecule": "COc1ccc(-n2c(C)cc(C(=O)CCl)c2C)cc1", "note": "[2-chloranyl-1-[1-(4-methoxyphenyl)-2,5-dimethyl-pyrrol-3-yl]ethanone]", "IC50": "> 80"}
{"molecule": "Cc1cc(C)n2cc(CSc3nnc(-c4ccccc4)c(-c4ccccc4)n3)nc2n1", "note": "[2-[(5,6-diphenyl-1,2,4-triazin-3-yl)sulfanylmethyl]-5,7-dimethyl-imidazo[1,2-a]pyrimidine]", "IC50": 11.4}
{"molecule": "CCOC(=O)c1ccc(NC(=O)CSc2n[nH]c(-c3ccncc3)n2)cc1", "IC50": 10.5}
{"molecule": "O=C1C=CC(=O)C(C2=C3C(=O)N(CCc4ccccc4)CC(=O)N3CCC2)=C1", "note": "[SMR000226463]", "IC50": 6.85}
{"molecule": "CC(C)c1nc2oc3c(NCCO)ncnc3c2c2c1COC(C)(C)C2", "note": "[SMR000439744]", "IC50": 2.82}
{"molecule": "Cc1nc2c(c(=O)c3ccccc3n2C)c(=O)n1-c1ccccc1", "IC50": 15.3}
{"molecule": "CCOC(=O)C1=C(c2ccc(OC)cc2)C(=O)c2ccccc2C1=O", "note": "[SMR000185036]", "IC50": 2.44}
{"molecule": "Cc1nc([N+](=O)[O-])c(Br)n1CC(=O)c1ccc2ccccc2c1", "note": "[2-(5-bromanyl-2-methyl-4-nitro-imidazol-1-yl)-1-naphthalen-2-yl-ethanone]", "IC50": "> 80"}
{"molecule": "O=C(O)COc1ccc(C=NNC(=O)c2ccc(-c3csc(Nc4ccc(Cl)cc4)n3)cc2)cc1", "note": "[2-[4-[[[4-[2-(4-chloroanilino)-1,3-thiazol-4-yl]benzoyl]hydrazinylidene]methyl]phenoxy]acetic acid]", "IC50": "> 80"}
{"molecule": "O=C1C(SCCO)=C(SCCO)C(=O)c2ccccc21", "note": "[NSC-95397]", "IC50": 8.11}
{"molecule": "O=C(O)c1cc(N2N=C(C(F)(F)F)/C(=C/C=C/c3ccco3)C2=O)ccc1Cl", "note": "[2-chloro-5-[4-[3-(2-furyl)-2-propenylidene]-5-oxo-3-(trifluoromethyl)-4,5-dihydro-1H-pyrazol-1-yl]benzoic acid]", "IC50": "> 80"}
{"molecule": "COC1=CC(=O)C(OC)=C(OC)C1=O", "note": "[SMR001527280]", "IC50": 6.46}
{"molecule": "CCc1ccc(S(=O)(=O)N=C2C=C(Sc3nnc[nH]3)C(=O)c3ccccc32)cc1", "IC50": 2.85}
{"molecule": "CCN(CC)C(=O)c1ccc(C(=O)c2c(C)cc(C)cc2C)cc1", "note": "[N,N-diethyl-4-[oxo-(2,4,6-trimethylphenyl)methyl]benzamide]", "IC50": "> 80"}
{"molecule": "COc1ccc(OC)c(N2C(=O)C(=Cc3ccco3)C(=O)NC2=S)c1", "note": "[MLS001197216]", "IC50": "> 80"}
{"molecule": "COc1ccc(NC(=O)Cc2c[nH]c3ccccc23)cc1S(=O)(=O)N1CCCCC1", "note": "[2-(1H-indol-3-yl)-N-(4-methoxy-3-piperidin-1-ylsulfonylphenyl)acetamide]", "IC50": "> 80"}
{"molecule": "CC(OC(=O)c1cc(O)c2ccccc2c1O)C(=O)Nc1ccc(C(N)=O)cc1", "note": "(centres undefined) [[1-[(4-aminocarbonylphenyl)amino]-1-oxidanylidene-propan-2-yl] 1,4-bis(oxidanyl)naphthalene-2-carboxylate]", "IC50": "> 80"}
{"molecule": "CCOc1ccc(/C=C2/SC(=S)N(CCC(=O)Nc3ccc(C(=O)O)cc3)C2=O)cc1", "note": "[4-[3-[(5E)-5-[(4-ethoxyphenyl)methylidene]-4-oxo-2-sulfanylidene-1,3-thiazolidin-3-yl]propanoylamino]benzoic acid]", "IC50": "> 80"}
{"molecule": "CC(=O)NC1C(=O)N(CCN2CCOCC2)c2ccc(C)cc21", "note": "(centres undefined) [N-[5-methyl-1-(2-morpholin-4-ylethyl)-2-oxidanylidene-3H-indol-3-yl]ethanamide]", "IC50": "> 80"}
{"molecule": "COC(=O)C[C@]1(C(=O)OC)CN(C#N)N(c2ccc(Cl)cc2)C12c1ccccc1-c1ccccc12", "note": "[methyl 1-(4-chlorophenyl)-2-cyano-4-(2-methoxy-2-oxoethyl)spiro[pyrazolidine-5,9'-(9'H)-fluorene]-4-carboxylate]", "IC50": "> 80"}
{"molecule": "O=C1C(Cl)=C(Oc2ccccc2)C(=O)c2ccccc21", "note": "[2-chloro-3-phenoxynaphthalene-1,4-dione]", "IC50": 10}
{"molecule": "O=C1C=C(c2c(O)ccc3ccccc23)c2ccccc2C1=O", "note": "[4-(2-hydroxy-1-naphthalenyl)naphthalene-1,2-dione]", "IC50": 5.1}
{"assay": "hexokinase 1 inhibition, dose response, selectivity assay for HKDC1 inhibitor project, biochemical (AID 504763)", "settings": "inactive by the depositor's call", "units": {"IC50": "µM"}}
{"molecule": "COc1ccc(N2C3=C(CC4=C2CCCC4=O)C(=O)CCC3)cc1", "note": "[10-(4-methoxyphenyl)-3,4,6,7,9,10-hexahydro-1,8(2H,5H)-acridinedione]", "IC50": 24}
{"molecule": "Cc1nc(COC(=O)c2cc(O)c3ccccc3c2O)cs1", "note": "[(2-methyl-1,3-thiazol-4-yl)methyl 1,4-bis(oxidanyl)naphthalene-2-carboxylate]", "IC50": 25}
{"molecule": "CCCc1nc2oc3c(NCC4CCCO4)ncnc3c2c2c1COC(C)(C)C2", "note": "(centres undefined) [MLS000042555]", "IC50": 31.6}
{"molecule": "COc1ccc(OC)c2nc(O)c(CCNC(=O)c3cc4ccccc4o3)cc12", "note": "[SMR000018515]", "IC50": 23.8}
{"molecule": "O=C(O)CSc1cc(NS(=O)(=O)c2cccc([N+](=O)[O-])c2)c2ccccc2c1O", "note": "[2-[1-hydroxy-4-[(3-nitrophenyl)sulfonylamino]naphthalen-2-yl]sulfanylacetic acid]", "IC50": 29.4}
{"molecule": "Cc1ccc(S(=O)(=O)Nc2c(O)ccc3ccccc23)cc1", "note": "[4-methyl-N-(2-oxidanylnaphthalen-1-yl)benzenesulfonamide]", "IC50": 27.4}
{"molecule": "COc1ccc(S(=O)(=O)Nc2cc(SCC(=O)O)c(O)c3ccccc23)cc1", "note": "[[(1-hydroxy-4-{[(4-methoxyphenyl)sulfonyl]amino}-2-naphthyl)thio]acetic acid]", "IC50": 63.3}
{"molecule": "Cc1oc2c(c1C(=O)c1ccc(Cl)cc1)C(=O)C(=O)c1ccccc1-2", "note": "[3-(4-Chloro-benzoyl)-2-methyl-naphtho[1,2-b]furan-4,5-dione]", "IC50": 40}
{"molecule": "CC(C)Nc1nnc(SCC(=O)Nc2ccc3c(c2)C(=O)c2ccccc2C3=O)s1", "note": "[MLS000390413]", "IC50": 22.3}
{"molecule": "Cc1oc2c(c1C(=O)c1ccccc1)C(=O)C(=O)c1ccccc1-2", "note": "[2-methyl-3-(phenylcarbonyl)benzo[g][1]benzofuran-4,5-dione]", "IC50": 78.3}
{"molecule": "CCN(CC)c1ccc2c(c1)oc(=O)c1c(Cl)cc(=O)oc12", "note": "[4-chloranyl-8-(diethylamino)pyrano[3,2-c]chromene-2,5-dione]", "IC50": 55.4}
{"molecule": "COC(=O)c1ccc(NC(=O)CSc2n[nH]c(-c3ccncc3)n2)cc1", "IC50": 22.5}
{"molecule": "NC1=CC(=O)C(=O)c2ccccc21", "IC50": 57.8}
{"molecule": "CCOC(=O)C1=C(Cc2ccc(Cl)cc2)C(=O)c2ccccc2C1=O", "note": "[ethyl 3-[(4-chlorophenyl)methyl]-1,4-bis(oxidanylidene)naphthalene-2-carboxylate]", "IC50": 22.2}
{"molecule": "COc1cc2c(cc1OC)-c1cc(NCc3ccccn3)nc(=O)n1CC2", "note": "[9,10-dimethoxy-2-(2-pyridinylmethylamino)-6,7-dihydropyrimido[6,1-a]isoquinolin-4-one]", "IC50": 67.4}
{"molecule": "CCOc1ccccc1Nc1nnc(SCc2nnc(-c3cc(OC)c(OC)c(OC)c3)o2)s1", "note": "[N-(2-ethoxyphenyl)-5-[[5-(3,4,5-trimethoxyphenyl)-1,3,4-oxadiazol-2-yl]methylthio]-1,3,4-thiadiazol-2-amine]", "IC50": 21.8}
